Measured values as given in patent publication US9823232B2, “Ligand for detection of chromium (III) and a process for the preparation thereof” (COUNCIL OF SCIENTIFIC & INDUSTRIAL RESEARCH, priority 2013, dated 2017).
“Also recorded” adds a separate entry of the source.

Tests used:
[1] = Emission (fluorescence) spectral titration with B-H plot in aqueous Triton X 100 / Tris buffer pH 7.2; format: binding
Experimental: (§1) The association constant (Kabs) of 2.4×10^3 M^−1 for the L1-Cr^3+ formation is evaluated from the absorption titration and B-H plot data (FIG. 3). A good linear fit data supported the 1:1 binding stoichiometry. For emission titration, a significant increase in emission intensity at 583 nm is observed with an increase in concentration of Cr^3+ in aqueous medium. […] The 1:1 binding stoichiometry is further confirmed from Jobs plot and presence of signal for m/z at 616.87 (Calc 616.75) in FAB-MS analysis of a mixture of L1 (1.59×10^-5 M) and (9.5×10^−5 M) Cr(ClO4)3 for [L1+Cr^3+].
(§2) A stock solution of the receptor L1 (6.9×10^−4 M) was prepared in acetonitrile medium and 57 μL of this stock solution was added to 2.5 ml of 0.4 mM TX100 in Tris-HCL aqueous buffer medium having solution pH 7.2 to make the effective ligand concentration of 1.59×10^−5 M. The solution was used for all the photophysical studies. Cr^3+ stock solution (4.75×10^−3 M) was prepared in pure aqueous medium and was used for all studies. Emission titrations were also performed as a function of [TX100](0.1 mM, 0.23 mM, 0.32 mM, 0.4 mM, 0.6 mM) in Tris-HCl buffer medium of pH 7.2 by monitoring the increase in emission intensity (using λExt=530 nm, λMon=583 nm and slit width 2/2 nm) on binding of L1 to Cr^3+ for optimizing the maximum enhancement of the emission intensity. The relative fluorescence quantum yields (t) were estimated using equation 1 for different concentration of TX100 (0.1 mM, 0.23 mM, 0.32 mM, 0.4 mM, 0.6 mM) in Tris-HCl buffer medium (having solution pH of 7.2) and by using the Rhodamine B (φf=0.3 in aqueous medium at RT) as a reference. φf=φf′(Isample/Istd)(Astd/Asample)(η^2sample/η^2std) Eq. 1 where, φf′ was the absolute quantum yield for the rhodamine B and was used as reference; Isample and Istd are the integrated emission intensities; Asample and Astd are the absorbances at the excitation wavelength, and ηsample and ηstd are the respective refractive indices. Computational Methodology:
(§3) Formation of Cr^3+.L1 was also confirmed from the result “Formation of Cr3+.L1 was also confirmed from the result of FAB MS study. Signal at m/z value of 616.87 (Calc 616.75) for Cr3+.L1”.
3.28×10^−3 M Cr(III) solution in water is prepared and then it is gradually added to a solution of the ligand L1, where effective ligand concentration is 1.59×10^−5 M in a Tris buffer with solution pH of 7.2 having 0.32 mM Triton X 100. Uv-vis and luminescence spectra are recorded in absence and presence of [Cr(III)]. In emission spectra a 200 fold increase in spectral intensity at 583 nm (λext=530 nm and slit 2/2) is observed, while a simultaneous change in solution colour is observed from colourless to pink red (please refer to FIGS. 4 and 6).

[2] = Uv-vis and emission titrations in acetonitrile medium; format: binding
Experimental: (§4) To envisage the adverse role of high solvation enthalpy of Cr(III) in aqueous medium, similar Uv-vis and emission titrations were carried out in acetonitrile medium using ([Cr(III)]=(0-1.93×10^−4)M; and [L1]=(1.59×10^−5 M) in CH3CN) and the evaluated formation constant for Cr^3+.L1 in acetonitrile was (Ka^Abs=(1.1±0.03)·10^6 M^−1, Ka^Ems=(1.0±0.02)·10^6 M^−1 using λExt: 530 nm and λMon: 583 nm for emission titration). The binding affinity of L1 towards Cr^3+ was evaluated as Ka^ITC=(1.6±0.02)·10^6 M^−1 in acetonitrile medium at 25° C. using ITC experiments. […] Thermodynamic parameters were obtained from ITC studies (ΔG (−(8.48±0.02) kcal mol^−1), ΔH ((−20.8±0.4) kcal mol^−1) and ΔS (−41.4±0.05) cal mol^−1) (all symbols are used according to standard terminology).

[3] = Relative fluorescence quantum yield w.r.t. Rhodamine B; format: physicochemical; conditions: with Cr^3+
Experimental: as §2, with “indices.” for “indices. Computational Methodology:”

[4] = Selectivity towards various metal ions by absorption and emission spectra
Experimental: To check the selectivity of Receptor L1 towards various metal ions like Li^+, Na^+, K^+, Cs^+, Mg^2+, Ca^2+, Ba^2+, Sr^2+, Zn^2+, Co^3+, Cu^2+, Ni^2+, Fe^2+, Pb^2+, Hg^2+ change in electronic as well as emission spectra were examined in 0.32 mM Triton X 100 in tris (5 mM, 25 mM NaCl) buffer medium at PH 7.2.
However only in presence of Cr^3+, a strong absorption band at 562 nm and intense emission band at 583 nm (for λext=530 nm) are observed. These changes are also associated with simultaneous visually detectable change in solution colour from colourless to pink red.
A solution of the perchlorate salts of the respective ion (Li^+, Na^+, K^+, Cs^+, Ca^2+, Mg^2+, Ba^2+, Sr^2+, Fe^2+, Ni^2+, Co^2+, Cu^2+, Mn^2+, Cd^2+, Pb^2+, Ba^2+, Zn^2+, Sr^2+, Hg^2+ and Cr^3+) and nitrate salts of lanthanides ions (Tb^3+, Ho^3+, Ce^3+, Sm^3+, Rb^+, Pr^3+, Eu^3+, Gd^3+, Nd^3+, Dy^3+, Tm^3+, Er^3+, Yb^3+) in pure aqueous medium were used for all studies. The effective final concentrations of all metal salts were maintained at 1.62×10^−4 M.
A stock solution of the receptor L1 (6.9×10^−4 M) was prepared in acetonitrile medium and 57 μL of this stock solution was added to 2.5 ml of 0.4 mM TX100 in Tris-HCL aqueous buffer medium having solution pH 7.2 to make the effective ligand concentration of 1.59×10^−5 M. The solution was used for all the photophysical studies. […]

[5] = Absorption (UV-Vis) spectral titration with B-H plot in aqueous Triton X 100 / Tris buffer pH 7.2; format: binding
Experimental: as §1, §2, §3

[6] = Isothermal Titration Calorimetry (ITC) in acetonitrile at 25° C.; format: binding
Experimental: FIG. 10 depicts Isothermal Titration Calorimetry (ITC) titration profile for the binding of Cr^3+ to receptor L1 at 25° C. in acetonitrile; Top plot: raw data for the sequential 2 μl injection of Cr^3+ (1.2×10^−3 M) into solution of L1 (2.0×10^−4 M) and bottom plot of the heat evolved (kcal per mole) of Cr^3+ added.
5.0 mM Tris-HCl aq. buffer solution was used for maintaining solution pH, unless mentioned otherwise. ESI-MS measurements were performed using a Micromass QTof-Micro instrument. FT-IR spectra were recorded as KBr pellets using a Perkin Elmer Spectra GX 2000 spectrometer. ^1H and ^13C NMR spectra were recorded on Bruker 500 MHz FT NMR (model: Avance-DPX 500). Electronic spectra were recorded with a Varian Cary 500 Scan UV-Vis-NIR Spectrophotometer, Isothermal Titration Calorimetry studies were performed in Microcal iTC200, while emission spectra were recorded using either Edinburgh Instrument Xe-900 Spectrofluorometer or PTI. For all spectroscopic studies in aqueous buffer medium as well as for studies with plant/algal cells, L1 self-assembled inside the miceller structure of TX100 was used, unless mentioned otherwise.
as §4

[7] = predominantly organic medium; cited from earlier work
[8] = aqueous medium at RT; cited from earlier work
[9] = [Triton X 100] 0.23 mM, aqueous medium
[10] = [Triton X 100] 0.32 mM, Tris buffer pH 7.2

C=CCN(CC=C)CCN1C(=O)c2ccccc2C12c1ccc(N(CC)CC)cc1Oc1cc(N(CC)CC)ccc12 [Ligand L1]
Increase in emission spectral intensity at 583 nm on adding Cr(III) ([1]; L1 1.59×10^−5 M, 0.32 mM Triton X 100, Tris pH 7.2, λext 530 nm): 200 fold | Binding Constant, Fluorescence Spectroscopic Method [1, 9]: 2000 M⁻¹ | Binding Constant, Fluorescence Spectroscopic Method [1, 10]: 2830 M⁻¹ | Binding Constant, Fluorescence Spectroscopic Method ([1]; [Triton X 100] 0.4 mM, Tris pH 7.2): 3250 M⁻¹ | Ka^Ems, binding constant for formation of Cr^3+.L1 ([1]; aq. buffer medium pH 7.2, emission titration, B-H plot): (3.3±0.2)·10^3 M^−1 | Ka^Abs, formation constant for Cr^3+.L1 [2]: (1.1±0.03)·10^6 M^−1 | Ka^Ems, formation constant for Cr^3+.L1 ([2]; λExt 530 nm, λMon 583 nm): (1.0±0.02)·10^6 M^−1 | Quantum yield in water w.r.t. Rhodamine B ([3]; [Triton X 100] 0.23 mM): 0.185 | Quantum yield in water w.r.t. Rhodamine B ([3]; [Triton X 100] 0.32 mM): 0.211 | Quantum yield in water w.r.t. Rhodamine B ([3]; [Triton X 100] 0.4 mM): 0.22 | Selectivity for Cr(III) over other metal ions (absorption 562 nm, emission 583 nm, colour) ([4]; Triton X 100 in Tris buffer pH 7.2, alkali, alkaline earth and transition metal ions): selective/specific for Cr (III); also recorded: no such changes are observed | Interference of Cr(VI) ([4]; pure aqueous medium): does not have any interferences of Cr(VI) at all | Binding Constant, Uv-Vis Spectroscopic Method [5, 9]: 1960 M⁻¹ | Binding Constant, Uv-Vis Spectroscopic Method [5, 10]: 2400 M⁻¹ | Binding Constant, Uv-Vis Spectroscopic Method ([5]; [Triton X 100] 0.4 mM, aqueous medium): 3200 M⁻¹ | Ka^Abs, binding constant for formation of Cr^3+.L1 ([5]; aq. buffer medium pH 7.2, absorption titration, B-H plot): 3.2±0.2)·10^3 M^−1 | Ka^ITC, binding affinity towards Cr^3+ [6]: (1.6±0.02)·10^6 M^−1 | ΔH of binding ([6]; ITC): -20.8 ± 0.4 kcal/mol | ΔS of binding ([6]; ITC): -41.4 ± 0.05 cal/(mol·K)

O=c1ccc2cc(/N=C/c3c4ccccc4cc4ccccc34)ccc2o1 [Receptors 3]
Selectivity towards Cr(III) [7]: high selectivity towards Cr(III)

CCN(CC)c1ccc2c(-c3ccccc3C(=O)O)c3ccc(=[N+](CC)CC)cc-3oc2c1.[Cl-] [Rhodamine B]
Fluorescence quantum yield φf (reference) [8]: 0.3
